# Data: US6506392B2, “Theraputic topical solution for skin and associated methods of use” (priority 2000, dated 2003)
# Test system: skin exhibiting psoriasis
# Assay: topical application to skin exhibiting psoriasis (Example 1)
# Assay type: in vivo, human
# Details: one subject, treatments used before the solution
# Excerpt: A further understanding of the present invention will be afforded by a consideration of the following non-limiting examples. In these examples, the “full strength” 100% solution was utilized. These examples are illustrative of the principals of the present invention and are not intended to limit the scope of the invention to the exemplary uses and formulations.
# Three subjects, two male and one […], suffering from psoriasis, applied the solution to areas on their bodies and rubbed in the solution with their fingertips several times per day or as needed. Areas of application included knees and elbows.
# It is important to note that some of the subjects had suffered from psoriasis for an extended period of time and had tried a variety of treatments. One subject had previously utilized various tars, cortisones, temovate and methotrexate treatments.
row,Compound,outcome of previous psoriasis treatments
1,CN(Cc1cnc2nc(N)nc(N)c2n1)c1ccc(C(=O)N[C@@H](CCC(=O)O)C(=O)O)cc1 [methotrexate],without success
2,CCC(=O)O[C@]1(C(=O)CCl)[C@@H](C)C[C@H]2[C@@H]3CCC4=CC(=O)C=C[C@]4(C)[C@@]3(F)[C@@H](O)C[C@@]21C [temovate],without success
